This is an account of results in paper PMC12344774, “Ferrocenyl Quinoline-Benzimidazole Hybrids: A Multistage Strategy to Combat Drug-Resistant Malaria” (Inorganic Chemistry, 2025).

A short description of data set [1]: Hydroxyl radical (ROS) generation with H2O2, DCFH2 fluorescent probe. The following applies: 200 μM in 1:4 DMSO/PBS, H2O2 and H2DCF added, 30 min. The source says:
Fluorogenic redox-sensitive probes are often employed to measure the presence of ROS, due to their low cost, ease of use, and nontoxicity, allowing for spectrofluorimetric measurements. 2′,7′-Dichlorodihydrofluorescein diacetate (DCFH2-DA) is the most widely used fluorogenic probe. Cleavage of the acetate groups, through alkaline hydrolysis, generates 2′,7′-dichlorodihydrofluorescein (DCFH2), which in the presence of oxidants, yields the highly fluorescent 2′,7′-dichlorofluorescein (DCF, λem = 523 nm). The DCFH2 probe reacts with an array of oxidants, making it an ideal indicator of general oxidative stress. […] The presence of these radicals was confirmed by monitoring the fluorescence over time (Figure ). […].
Stock solutions of DCFH2-DA were prepared to 1 mM in 100% DMSO and stored at −20 °C in the dark until use. The deacetylation of DCFH2-DA involved adding 2 μL of a 0.5 M NaOH solution to 200 μL of the 1 mM DCFH2-DA stock solution. The solution was mixed for 30 min, in the dark, at room temperature and then quenched with 800 μL of PBS buffer to obtain a 200 μM H2DCF 1:4 DMSO/PBS solution mixture.
[…]. The fluorometer was blanked using a 1:4 DMSO/PBS solution mixture. To identify hydroxyl radical production, 2 μL of a 0.5% H2O2 solution was added to 900 μL of the 200 μM complex solution in a cuvette at 25 °C. 100 μL of the prepared H2DCF solution (200 μM) was quickly added, and the readings recorded at 530 nm (emission wavelength), at 2 min intervals, over 30 min.

Data set [2] relates to CHO cell line.
Experimental: (§1) The samples were tested over 48 h against the Chinese hamster ovarian (CHO) cell line to determine general cytotoxicity. […] Quantitative assessment of toxic activity in vitro was determined via the MTT assay using the method described. Cell viability was determined colorimetrically using the breakdown of a dye by enzymes of the electron transport chain, taking place in the mitochondria of metabolically active living cells, as a marker for survival.
(§2) Compounds were tested in triplicate on a single occasion against these cells using the MTT assay. The test samples were prepared to a 10 mM stock solution, in 100% DMSO, and stored at −20 °C until use. Samples were tested as a suspension if not completely dissolved. Further dilutions to the desired starting concentration were freshly prepared in growth media at the start of the experiment.
(§3) Cells were plated to a density of 10^5 cells/well in 96-well plates and allowed to attach for 24 h. […] After 44 h MTT was added, and the plates were read 4 h later at 540 nm on a spectrophotometer following the addition of 100 μL of DMSO and gentle plate-shaking to solubilize and visualize the dye. Survival was plotted against concentration, and the IC50 values were obtained using a nonlinear dose–response curve fitting analysis via the Dotmatics software platform.
A further data set has as its system K1. Conditions: previous study; ref Baartzes et al.; read-out: PfIC50 (K1); cited from earlier work.
The test system of a further data set is rodent mouse model. On the set-up: method as in Baartzes et al. The following applies: in vivo, no mice were cured; ref Baartzes et al.; cited from earlier work.
The subject of data set [3] is whole-cell NF54 parasites.
Experimental: However, unlike the cell-free assay, the heme fractionation assay isolates both the heme and Hz components via a series of solubilization and separation steps. Furthermore, the absolute amount of each heme species per cell is calculated using the UV–vis data normalized to the flow cytometry parasite cell count.
The IC50 was previously determined using the pLDH assay. Following incubation for 28–32 h, to ensure progression to the trophozoite stage, parasitized red blood cells were saponin lysed to obtain isolated trophozoites. To determine the amount of heme and hemozoin, the trophozoites were then exposed to a series of cellular fractionation steps to successively liberate each heme species. The UV–visible spectra of these fractions were recorded between 400 and 415 nm on a multiwell plate reader. The percentage of each heme species was determined from the absorbance value of the Soret band of the pyridyl heme complex. To determine the absolute levels of each species, an aliquot of the isolated trophozoites was spiked with Trucount beads and stained with SYBR Green. These were run on a flow cytometer to determine absolute counts, which could in turn be used to calculate the absolute levels of each species per cell. The total heme in each of these samples was quantified using a standard curve. GraphPad Prism (v5) was used to analyze the final data set and perform the significance tests.
Data set [4] has as its system CHO cell line. Put plainly: Cytotoxicity, MTT assay.
Experimental: as §1, §2, §3

Structures are written as SMILES. Like-named read-outs stand apart in the source and are kept apart here.

On to `Cc1ccc2c(c1)nc(-[c-]1cccc1)n2CCCNc1ccnc2cc(Cl)ccc12.[Fe+2].c1cc[cH-]c1` [Complex C1, 7-chloro-N-(3-(5-(methyl)-2-ferrocenyl-1H-benzo[d]imidazole-1-yl)propyl)quinolin-4-amine], for which the “Hydroxyl radical generation (fluorescence intensity over time)” value in data set [1] is given as “no changes in the fluorescence intensity”. In the data set with CHO cell line [2], the CC50 (commonly the concentration giving 50% cytotoxicity) was determined as 43.7 ± 2.5 µM. The IC50 with K1 was 0.283 µM. In the data set on rodent mouse model, the Reduction in parasitemia was 92%.

As to `Cc1ccc2c(c1)nc(-[c-]1cccc1CN(C)C)n2CCCNc1ccnc2cc(Cl)ccc12.[Fe+2].c1cc[cH-]c1` (stereo not drawn) [Complex C3, 7-Chloro-N-(3-(5-methyl-2-(2-N,N-dimethylaminomethyl)ferrocenyl-1H-benzo[d]-imidazole-1-yl)propyl) Quinoline-4-amine], in data set [1], the “Hydroxyl radical generation (fluorescence intensity over time)” value is given as “produce hydroxyl radicals”. In addition, in data set [3] (NF54 parasites at 3× IC50), the “Hemozoin (Hz) Fe level per cell versus untreated control” value is listed as “more than five times lower”. The “Free heme level per cell” value in data set [3] (NF54 parasites, 0.5–1.5× the IC50 value) was “steadily increased”. In the data set on CHO cell line [4] (read-out: CC50 (CHO) ± SEM, MTT, 48 h, technical triplicate on a single occasion), the CC50 came out at 6.1 ± 1.2 µM. For the same molecule, in the data set with CHO cell line [4] (selectivity index), the “SI (CC50 CHO/IC50 NF54)” value was determined as 244.4.
